# In patent publication US7384758B2, “Bioluminescent protease assay with modified aminoluciferin or derivatives thereof” (Promeaga Corporation, priority 2002, dated 2008):
# Several values for one entry are separate records, joined by “and”; a condition that tells them apart may be missing. Equal values may be shown once.
# Assays:
# [1] = target: T1, trypsin (Bos taurus, UniProt P00760); assay: trypsin titration, homogeneous luminescent vs fluorescent substrate assay (Examples 1 and 2); assay type: biochemical; conditions: for limit of detection (trypsin): 3 S.D. above background noise, amount of trypsin
# T1 construct: gene PRSS1
# T1 sequence (P00760 24-246): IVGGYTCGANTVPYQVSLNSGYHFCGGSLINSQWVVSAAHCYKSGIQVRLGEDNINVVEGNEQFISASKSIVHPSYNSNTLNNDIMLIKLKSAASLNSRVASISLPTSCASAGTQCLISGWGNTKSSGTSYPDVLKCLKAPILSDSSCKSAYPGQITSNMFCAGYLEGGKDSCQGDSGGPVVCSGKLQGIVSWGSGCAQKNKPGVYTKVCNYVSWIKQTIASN
# Experimental: To compare the limit of detection for a luminescence-based and a fluorescence-based assay for trypsin, two substrates, Lys-aminoluciferin (Cbz-modified lysinyl-aminoluciferin) and Arg-Rho-110 (Molecular Probes, Catalog no. R6501), were used. Substrate was resuspended in 100 mM Hepes, pH 7.9, at a concentration of 10 mM and stored at −20° C. The thawed Lys-aminoluciferin substrate, thermostable luciferase (5.2 mg/ml stock), and ATP (0.1 M stock) were diluted in buffer (50 mM HEPES, pH 7.9, 10 mM MgSO4, 1 mM EDTA, pH 8.2 and 0.1% prionex) to make a stock that was 10× the final concentration. The 10× stock was 200 μM Lys-aminoluciferin, 200 μg/ml luciferase, and 2.0 mM ATP. This 10× stock was incubated for at least 90 minutes to eliminate any free aminoluciferin.
# Trypsin was prepared for titration as follows: 1 μg/μl stock solution was diluted to 10 ng/50 μl in the same buffer as above (50 mM HEPES, pH 7.9, 10 mM MgSO4, 1 mM EDTA, pH 8.2 and 0.1% prionex). This […] trypsin solution was serially diluted 5 fold to 2 ng, 0.4 ng, 0.08 ng, 0.016 ng, 3.2 pg, 0.64 pg, 0.128 pg, 0.0256 pg and 0.005 pg. The trypsin dilutions were added to two 96-well plates in replicates of 8 at 50 μl per well. Pipette tips were changed for each row to avoid enzyme carryover. Two columns (16 wells) contained buffer only without trypsin.
# One of the two plates of the trypsin dilutions was then used to test the Lys-aminoluciferin substrate (FIG. 3). Samples were tested in quadruplicate. The 10× substrate/luciferase/ATP mix was further diluted 5 fold in the above-described buffer to make a 2× stock. 50 μl of this 2× stock was added to each well containing 50 μl of the trypsin titration such that the final 100 μl volume contained 20 μM Lys-aminoluciferin, 200 μM ATP, and 20 μg/ml of thermostable luciferase in buffer (50 mM HEPES, pH 7.9, 10 mM MgSO4, 1 mM EDTA, pH 8.2 and 0.1% prionex). The substrate mix was also added to 12 of the 16 wells containing buffer only without trypsin. The remaining 4 wells were left with buffer only (no substrate mix). This plate was incubated at room temperature and read by luminometer at 45 minutes and 3 hours after adding the substrate mix to the trypsin.
# The second plate of trypsin dilutions was used to test the Arg-Rho-110 substrate (FIG. 4). The Arg-Rho-110 substrate was tested at final concentrations of 10 μM and 2.5 μM. 2× stocks of 20 μM and 5 μM were prepared by diluting the substrate in 50 mM HEPES, pH 7.9, 10 mM MgSO4, 1 mM EDTA, pH 8.2 and 0.1% prionex. To each well of the plate containing 50 μl of the trypsin titration was added 50 μl of either the 20 μM or 5 μM 2× stocks of Arg-Rho-110 substrate. The 20 μM stock was added to the first four rows (final concentration of 10 μM in rows A-D) and the 5 μM stock was added to the second four rows (final concentration of 2.5 μM in rows E-H). The substrate mix was also added to 12 of the 16 wells containing buffer only without trypsin. The remaining 4 wells were left with buffer only (no substrate mix). The Arg-Rho-110 plate was incubated at room temperature in the dark for 4.5 hours and read on a fluorimeter.
# The signal to noise was calculated as signal-background (no trypsin)/S.D. of background. The limit of detection was determined as 3 S.D. above background noise.
# To determine the effect of an overnight pre-incubation of substrate with luciferase, ATP and buffer prior to adding trypsin, a substrate/luciferase/ATP mix was incubated overnight in the dark, at room temperature. […]
# [2] = test system: thermostable firefly luciferase; assay: luminescent reaction with luciferin or aminoluciferin as luciferase substrate (FIG. 1); assay type: biochemical; conditions: substrate for thermostable firefly luciferase, FIG. 1
# From the text: FIG. 1 depicts relative light units (RLU) for luciferin or aminoluciferin as a substrate for a thermostable firefly luciferase in a luminescent reaction.
# [3] = target: T2, caspase 3 (Homo sapiens, UniProt P42574); assay: caspase titration, luminescent vs fluorescent substrate in Apo-ONE buffer (Example 3); assay type: biochemical
# T2 construct: approximately 10 mU/ng protein with >75% in active conformation; purchased Upstate Biotech 14-264
# T2 sequence (P42574 29-175 limits assumed): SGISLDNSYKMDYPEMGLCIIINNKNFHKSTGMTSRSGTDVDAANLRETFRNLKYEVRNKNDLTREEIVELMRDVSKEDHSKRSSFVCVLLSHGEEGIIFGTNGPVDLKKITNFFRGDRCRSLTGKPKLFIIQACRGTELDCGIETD
# T2 sequence (P42574 176-277 limits assumed): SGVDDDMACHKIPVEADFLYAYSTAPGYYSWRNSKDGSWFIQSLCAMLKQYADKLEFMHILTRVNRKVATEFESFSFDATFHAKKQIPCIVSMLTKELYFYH
# Experimental: To conduct a direct comparison between luminescent and fluorescent substrates for caspase 3, DEVD-Rho-110 and DEVD-aminoluciferin were employed. The DEVD-aminoluciferin substrate/luciferase/ATP mixture was prepared first and preincubated prior to the enzyme assay to eliminate free aminoluciferin. To 1.25 ml of Apo-ONE™ buffer (Promega) was added 10 μl of DEVD-luciferin (10 mM stock), 10 μl of ATP (0.1 M stock), 50 μl of MgSO4 (1 M stock), 50 μl of prionex (10% stock), and 48 μl of luciferase (5.2 mg/ml stock). The volume was brought up to 2.5 ml with nanopure, autoclaved water to make a 2× stock of 40 μM DEVD-luciferin, 400 μM ATP, 0.2% prionex, and 100 μg/ml luciferase. This stock was incubated overnight at room temperature.
# Caspase (Upstate Biotech, Cat. No.14-264; approximately 10 mU/ng protein with >75% in active conformation) was diluted 550 fold in a 50/50 mixture of Apo-ONE™ buffer/RPMI-1640 culture media, from 1 U/μl to 1.8 mU/μl. 50 μl of Apo-One™ buffer/RPMI-1640 media was added to each well in two 96-well plates. Then, 5.5 μl of the caspase stock was added to the 50 μL of Apo-One™ buffer/RPMI-1640 media for a concentration of about 10 mU/50 μl. Ten serial dilutions of 10 fold each were carried out in the wells by serially transferring 5.5 μl of caspase solution into the 50 μl of the buffer/media mix. The final caspase concentrations were 10 mU, 1 mU, 0.1 mU, 0.01 mU, 0.001 mU, 0.1 μU, 0.01 μU, 0.001 μU, 0.1 nU, and 0.01 nU/well. The last two columns were buffer/media only without caspase.
# To one plate of caspase dilutions, 50 μl of the DEVD-aminoluciferin substrate mixture was added to each well for final concentrations of 20 μM DEVD-aminoluciferin, 200 μM ATP, 10 mM MgSO4, 0.1% prionex, and 50 μg/ml luciferase. […] Readings were taken for each plate at 1 hour, 3 hours, and 5 hours on a luminometer and fluorimeter, respectively.
# Signal to noise was calculated as above and the limit of detection was determined as 3 S.D. above the background noise.
# [4] = test system: Jurkat cells; assay: caspase activity in Jurkat cells induced to undergo apoptosis with anti-FAS antibody (Example 4); assay type: cell-based; conditions: for sensitivity greater than the Arg-Rho110: Jurkat cells, FIG. 11
# Experimental: The DEVD-aminoluciferin caspase substrate and the DEVD-Rho-110 caspase substrate were used to measure caspase activity in Jurkat cells induced to undergo apoptosis with anti-FAS antibody. DEVD-luciferin and luciferase were prepared for pre-incubation prior to use in the assay. Substrate, ATP, MgSO4, prionex and luciferase were diluted from the same stock as in Example 3 to the same 2× concentration, except that the components were diluted in autoclaved water rather than Apo-ONE™. This mixture was incubated overnight in the dark (covered in foil).
# The next day, Jurkat cells, grown in RPMI-1640 media with 10% Fetal Bovine Serum (FBS) to a density of 5×10^5 cells/ml, were treated with anti-FAS antibody. To one vial of 8 ml of media was added 1.6 μl of antibody (1:5000 dilution); a second vial contained 8 ml of media and no antibody. Cells were incubated for 4 hours at 37° C., in 5% CO2 Cells were then centrifuged and resuspended in 12.5 ml of RPMI-1640 to a density of 3.2×10^5 cells/ml, then diluted 1:1 with Apo-ONE™ buffer for 1.6×10^5 cells/ml, or 8,000 per 50 μl.
# Two 96-well plates were prepared such that on each, the first column was left empty, and 50 μl of RPMI-1640:Apo-ONE™ solution was placed in each of the remaining wells. To the first four rows of each plate, […] of the “induced” cell solution (8,000 cells) was added and the cells then serially diluted from 8,000 cells/well, to 4,000 cells/well and so on, down to 7.8 cells/well. The twelfth column was left without cells and with only 50 μl of RPMI-1640:Apo-ONE™ solution. […]
# Signal to noise was calculated (signal minus background (no cell control)/S.D. of background) and the limit of detection was determined as 3 S.D. above the background noise.
# One of the two plates was treated with 50 μl of either DEVD-aminoluciferin/luciferase mix or with DEVD-Rho-110/Apo-ONE™ (Promega G778B and G777B). Each plate was mixed on a plate shaker for 30 seconds then incubated at room temperature and read on either a Dynex luminometer or Fluoroskan plate reader at 1 hour, 2 hours, 4 hours and one day later.
compound,measurement,setting,value
"N=C(N)NCCCC(NC(=O)OCc1ccccc1)C(=O)Nc1ccc2c(c1)Oc1cc(NC(=O)C(CCCNC(=N)N)NC(=O)OCc3ccccc3)ccc1C21OC(=O)c2ccccc21 (stereo not drawn) [Arg-Rho-110, reference compound]",limit of detection (trypsin),[1],12 to 30 pg
same,limit of detection (trypsin),[1]; listed as arginine2-rhodamine-110,12 to 30 pg
O=C(O)[C@H]1CSC(c2nc3ccc(O)cc3s2)=N1 [luciferin],Km,[2],~0.6 µM
Cbz-modified lysinyl-aminoluciferin [Lys-aminoluciferin],limit of detection (trypsin),[1],3.0 pg
same,sensitivity greater than Arg-Rho-110,"[1]; depending on the time of the reading, FIG. 9",3-10 fold and 3 to 10 fold
same,less enzyme detected / more sensitive than fluorescence-based assay,[1]; luminescent vs rhodamine-110 trypsin substrate,4-10 times
N-(Z-Asp-Glu-Val-Asp)-aminoluciferin [DEVD-aminoluciferin],more sensitive than DEVD-Rho-110,"[3]; FIG. 10, Example 3",10-100 times
same,sensitivity greater than the Arg-Rho110,"[3]; depending on the time of the readings, FIG. 10",50-300 fold
same,limit of detection (purified caspase),"[3]; substrate for caspase 3 and 7, purified caspase, 3 S.D. above background",0.2 to 0.5 μU
same,sensitivity greater than the Arg-Rho110,[4]; 1 hour time point,10 fold
same,sensitivity greater than the Arg-Rho110,[4]; at 4 hours,about 2 fold
same,limit of detection of caspase expressing cells,[4]; at 1 hour,15 cells
